Results: patent US20170215422A1, “NOVEL CYCLIC DEPSIPEPTIDE DERIVATIVES AND HARMFUL ORGANISM CONTROL AGENTS COMPRISING THE SAME” (priority 2012, published 2017)

Columns and labels:
Type in all cases: in vivo
[1] = test system: Musca domestica; test: Control effect against Musca domestica adults (sucrose solution on swab); details: 50 ppm in 40% sucrose solution, 4 days
Protocol: A chemical solution of the compound according to the present invention that had been adjusted with a 40% sucrose solution to a concentration of 50 ppm was adsorbed on a swab, and the swab was placed in a vial. Two adults of Musca domestica grown in a room were released, followed by standing in a room at a room temperature of 25° C. […] When two insects were in a dead or anguished state, the test compound was determined to be effective.

[2] = test system: Haemaphysalis longicornis; test: Tickicidal effect against Haemaphysalis longicornis (capsule on mouse); details: treatment of 9.5 μg on mouse body surface; nymphal ticks; 5 days
Protocol: A capsule having a diameter of 2 cm and a height of 2 cm was bonded to a surface of a back surface of a mouse. A compound of the present invention (9.5 μg) was dissolved in ethanol, and the solution was dropped on the surface of the body of the […] within the capsule. After thorough drying, ten nymphal ticks of Haemaphysalis longicornis were released, and the upper portion of the capsule was lidded for hermetical closing. The mouse was grown in a cage at 25° C. for 12 hr under light phase conditions. Five days after the release, the capsule was removed, and survival or death of the nymphal ticks and the number of blood sucked individuals were measured, and the death/anguish rate was calculated by the following equation.
Death/anguish rate (%)={number of dead/anguished insects/(number of survived ticks+number of dead/anguished insects)}×100

[3] = test system: larvae of Musca domestica; test: Control effect against larvae of Musca domestica (treated feed); details: treatment of 12.5 ppm in feed; 5 days
Protocol: A compound of the present invention was applied to a very small amount of DMSO, followed by dissolution in deionized water to prepare a chemical solution. The chemical solution (2 mil) adjusted to a concentration of 12.5 ppm was added to and well mixed with 2 g of a powder prepared by mixing wheat bran, MF feed (ORIENTAL YEAST Co., Ltd.), and dry yeast at a wheat bran:MF feed:dry yeast of 25:5:1 to prepare a feed for larvae of Musca domestica. The feed containing the compound was lightly packed in a 3-ml vial, and eight eggs were released. The mouth of the vial was closed with a meshed lid, and the vial was left to stand at 25° C. The number of larvae was counted five days after the chemical treatment, and the death rate was calculated by the following equation. The test was carried out by replicating each treatment twice.
Death rate (%)={number of dead larvae/(number of survived larvae+number of dead larvae)}×100

| Structure (SMILES) | insecticidal activity (two adults dead or anguished = effective) [1] | death/anguish rate [2] | death rate [3] [%] |
| --- | --- | --- | --- |
| CCCCC[C@@H]1OC(=O)[C@H](C)N(C)C(=O)[C@@H](CCCCC)OC(=O)[C@H](C)N(C)C(=O)[C@@H](CCCCC)OC(=O)[C@H](CC(C)C)N(C)C(=O)[C@@H](CCCCC)OC(=O)[C@H](C)N(C)C1=O [Compound 27] | two insects were brought to a dead or anguished state | not less than 70% | – |
| CCCCCC1OC(=O)C(CC(C)C)N(C)C(=O)C(CCCCC)OC(=O)C(CC(C)C)N(C)C(=O)C(CCCCC)OC(=O)C(CCC)N(C)C(=O)C(CCCCC)OC(=O)CN(C)C1=O (stereo not drawn) [Compound 57] | – | – | 100 |
